Results from patent US7973069B2 (PTC Therapeutics, Inc., priority 2004, dated 2011).
“And” between values parts separate entries of the source, which are not always exact repeats. Identical values can stand only once.

The molecules below were run on HCV replicon.
Format: cell-based
For `C=CCNC(=O)Nc1ccc(-c2c(C#N)c3ccc(OCCCN4CCOCC4)cc3n2CC)cc1` [Compound 1125], the IC50 was under 0.5 µM. Molecule `CCCn1c(-c2ccc(NS(=O)(=O)CC)cc2)c(C#N)c2ccc(OCc3ccccc3)cc21` [Compound 922] has an IC50 of 0.5 to 2 µM. Molecule `CC(C)OC(=O)Nc1ccc(-c2c(C#N)c3ccc(Oc4ncccn4)cc3n2C(C)C)cc1` [Compound 2392] has an IC50 of under 0.5 µM. For `C=CCOC(=O)Nc1ccc(-c2c(C#N)c3cc(OC)ccc3n2C2CCC2)cc1` [Compound 1180], the IC50 was 0.5 to 2 µM. Molecule `CCn1c(-c2ccc(NS(=O)(=O)C3CC3)cc2)c(C#N)c2ccc(OC(F)(F)F)cc21` [Compound 883] has an IC50 of under 0.5 µM. `CCNC(=O)Nc1ccc(-c2c(C#N)c3ccc(OCCF)cc3n2CC)cc1` [Compound 954] was tested, and the IC50 was 0.5 to 2 µM. In the case of `CCOc1ccc2c(C#N)c(-c3ccc(NC(=O)OC4CCCC4)nc3)n(C3CCC3)c2c1` [Compound 1145], the IC50 is reported as 0.5 to 2 µM. `CCCCNC(=O)Nc1ccc(-c2c(C#N)c3ccc(OCCF)cc3n2CC)cc1` [Compound 957] was tested, and the IC50 was under 0.5 µM. Work on `CCCn1c(-c2ccc(NS(C)(=O)=O)cc2)c(C#N)c2ccc(OCc3ccccc3)cc21` [Compound 921] yielded an IC50 of 0.5 to 2 µM. Molecule `CCCNC(=O)Nc1ccc(-c2c(C#N)c3cc(OC)ccc3n2CC)cc1` [Compound 1010] has an IC50 of 0.5 to 2 µM. With `CCCn1c(-c2ccc(NC(=O)OC)cc2)c(C#N)c2ccc(OCC)cc21` [Compound 1062] the IC50 was 0.5 to 2 µM. For `CCCOC(=O)Nc1ccc(-c2c(C#N)c3ccc(OC)cc3n2CC2CC2)cc1` [Compound 985], the IC50 was 0.5 to 2 µM. `CCn1c(-c2ccc(NC(C)=O)cc2)c(C#N)c2ccc(OC(F)(F)F)cc21` [Compound 913] showed an IC50 of 0.5 to 2 µM. Molecule `CCCS(=O)(=O)Nc1ccc(-c2c(C#N)c3ccc(OC)cc3n2CC)cc1C` [Compound 961] has an IC50 of 0.5 to 2 µM. `N#Cc1cn(CC2CC2)c2cc(OC(F)F)ccc12` [Compound 940] gave an IC50 of 0.5 to 2 µM. Molecule `CCOC(=O)Nc1ccc(-c2c(C#N)c3ccc(OCC)cc3n2C2CCC2)cc1` [Compound 971] has an IC50 of under 0.5 µM. For `CCOc1ccc2c(C#N)c(-c3ccc(NC(=O)NC4CCC4)cc3)n(C3CCC3)c2c1` [Compound 1168], the IC50 was under 0.5 µM. With `CCOc1ccc2c(C#N)c(-c3ccc(NC(=O)OCC4CC4)cc3)n(C3CCC3)c2c1` [Compound 1146] the IC50 was under 0.5 µM. Work on `CCCNC(=O)Nc1ccc(-c2c(C#N)c3ccc(OCc4cccnc4)cc3n2CC)cc1` [Compound 1185] yielded an IC50 of under 0.5 µM. With `CC(OC(=O)Nc1ccc(-c2c(C#N)c3ccc(OCCn4ccnc4)cc3n2C2CCC2)cc1)C1CC1` (centres unmarked) [Compound 1328] the IC50 was under 0.5 µM. `CCOc1ccc2c(c1)c(C#N)c(-c1ccc(NC(=O)OC(C)CC)cc1)n2C1CCC1` (centres unmarked) [Compound 1323] gave an IC50 of under 0.5 µM. For `CCn1c(-c2ccc(NC(=O)OCCCl)cc2)c(C#N)c2ccc(OCCCN3CCOCC3)cc21` [Compound 1116], the IC50 was 0.5 to 2 µM. Molecule `COC(=O)c1ccc2c(C#N)c(-c3ccc(NC(=O)OC(C)C)cc3)n(C3CCC3)c2c1` [Compound 1300] has an IC50 of under 0.5 µM. For `CCOC(=O)Nc1ccc(-c2c(C#N)c3ccc(OC)cc3n2CC2CC2)cc1` [Compound 984], the IC50 was 0.5 to 2 µM. `C=CCNC(=O)Nc1ccc(-c2c(C#N)c3ccc(OC(F)F)cc3n2CC)cc1` [Compound 1139] was tested, and the IC50 was 0.5 to 2 µM. In the case of `CCN(C)CCOc1ccc2c(C#N)c(-c3ccc(NC(=O)NC(C)C)cc3)n(C3CCC3)c2c1` [Compound 1320], the IC50 is reported as under 0.5 µM. Work on `C[C@@H](OC(=O)Nc1ccc(-c2c(C#N)c3ccc(Oc4cnccn4)cc3n2C2CC2)cc1)C1CC1` [Compound 2322] yielded an IC50 of under 0.5 µM. In the case of `CC(C)OC(=O)Nc1ccc(-c2c(C#N)c3ccc(OCCCn4ccnc4)cc3n2C2CCC2)cc1` [Compound 1254], the IC50 is reported as under 0.5 µM. In the case of `CCNC(=O)Nc1ccc(-c2c(C#N)c3ccc(OC)cc3n2CC)cc1C` [Compound 966], the IC50 is reported as 0.5 to 2 µM. With `CCOC(=O)Nc1ccc(-c2c(C#N)c3ccc(OC(F)F)cc3n2CC)cc1` [Compound 1131] the IC50 was 0.5 to 2 µM. `CCOP(=O)(Nc1ccc(-c2c(C#N)c3ccc(OC)cc3n2CC)cc1)OCC` [Compound 943] showed an IC50 of 0.5 to 2 µM. Molecule `CCC(C)OC(=O)Nc1ccc(-c2c(C#N)c3ccc(OCC4CCCO4)cc3n2C2CCC2)cc1` (centres unmarked) [Compound 1283] has an IC50 of under 0.5 µM. `CCCCNC(=O)Nc1cccc(-c2c(C#N)c3ccc(OCCCN4CCOCC4)cc3n2CC)c1` [Compound 1067] showed an IC50 of 0.5 to 2 µM. `CCCOc1ccc2c(C#N)c(-c3ccc(NC(=O)OC4CCC4)cc3)n(C(C)C)c2c1` [Compound 1247] gave an IC50 of under 0.5 µM. Molecule `CCn1c(-c2ccc(N)cc2)c(C#N)c2ccc(OC(F)F)cc21` [Compound 870] has an IC50 of 0.5 to 2 µM. Molecule `CCCS(=O)(=O)Nc1ccc(-c2c(C#N)c3ccc(OCC)cc3n2CC2CCC2)cc1` [Compound 1170] has an IC50 of 0.5 to 2 µM. For `CCOc1ccc2c(C#N)c(-c3ccc(NC(=O)C4CCC4)cc3)n(CC)c2c1` [Compound 899], the IC50 was 0.5 to 2 µM. `CCOc1ccc2c(C#N)c(-c3ccc(NC(=O)OC(C)C)cc3)n(C(C)C)c2c1` [Compound 1058] showed an IC50 of under 0.5 µM. `COc1ccc2c(c1)c(C#N)c(-c1ccc(NC(=O)OCC(C)(C)C)cc1)n2C1CCC1` [Compound 1233] was tested, and the IC50 was under 0.5 µM. In the case of `CCOc1ccc2c(C#N)c(-c3ccc(NC(=O)NC4CC4)cc3)n(C3CCC3)c2c1` [Compound 1191], the IC50 is reported as 0.5 to 2 µM. `CCn1c(-c2ccc(NC(=O)OCC(C)C)cc2)c(C#N)c2ccc(OCCF)cc21` [Compound 947] gave an IC50 of under 0.5 µM. `CCOc1ccc2c(C#N)c(-c3ccc(N(CC)CC)cc3)n(C3CC3)c2c1` [Compound 1310] was tested, and the IC50 was 0.5 to 2 µM. Work on `CCn1c(-c2ccc(NC(=O)C3CC3)cc2)c(C#N)c2ccc(OCCn3cnnc3)cc21` [Compound 1092] yielded an IC50 of 0.5 to 2 µM. With `CCOc1ccc2c(C#N)c(-c3ccc(NS(=O)(=O)C4CC4)cc3)n(C3CCC3)c2c1` [Compound 934] the IC50 was under 0.5 µM. `CC(C)OC(=O)Nc1ccc(-c2c(C#N)c3ccc(OCCCN4CCN(C)CC4)cc3n2C2CCC2)cc1` [Compound 1261] gave an IC50 of under 0.5 µM. `CCCCOC(=O)Nc1ccc(-c2c(C#N)c3ccc(OC)cc3n2C2CCC2)cc1` [Compound 1075] showed an IC50 of 0.5 to 2 µM. `CCCOc1ccc2c(C#N)c(-c3ccc(NC(=O)NC4CC4)cc3)n(C(C)C)c2c1` [Compound 1325] gave an IC50 of under 0.5 µM. `CCCNC(=O)Nc1ccc(-c2c(C#N)c3ccc(OC)cc3n2CC)cc1C` [Compound 967] gave an IC50 of 0.5 to 2 µM. `CC(C)OC(=O)Nc1ccc(-c2c(C#N)c3ccc(OCCCN4CCOCC4)cc3n2C2CCC2)cc1` [Compound 1253] showed an IC50 of 0.5 to 2 µM. Work on `CCCCNC(=O)Nc1ccc(-c2c(C#N)c3ccc(OC(F)F)cc3n2CC)cc1` [Compound 1138] yielded an IC50 of 0.5 to 2 µM. In the case of `CCOc1ccc2c(C#N)c(-c3ccc(NC(=O)OC4CCCC4)cc3)n(C3CCCC3)c2c1` [Compound 1211], the IC50 is reported as under 0.5 µM. `CCOc1ccc2c(C#N)c(-c3ccc(NC(=O)OC(C)c4ccccc4)cc3)n(C3CCC3)c2c1` (centres unmarked) [Compound 1289] was tested, and the IC50 was under 0.5 µM. In the case of `CCOc1ccc2c(C#N)c(-c3ccc(N(CC)C(=O)OC(C)C)cc3)n(C3CC3)c2c1` [Compound 1237], the IC50 is reported as 0.5 to 2 µM. `CCn1c(-c2ccc(NC(=O)OC)c(C)c2)c(C#N)c2ccc(OC)cc21` [Compound 963] gave an IC50 of 0.5 to 2 µM. `CCn1c(-c2ccc(NS(=O)(=O)C3CC3)cc2)c(C#N)c2ccc(OC3CC3)cc21` [Compound 1047] showed an IC50 of under 0.5 µM. Molecule `CCOC(=O)Nc1ccc(-c2c(C#N)c3ccc(OC)cc3n2C2CCC2)cc1` [Compound 1073] has an IC50 of 0.5 to 2 µM. `CCCn1c(-c2ccc(NS(C)(=O)=O)cc2)c(C#N)c2cc(OC)ccc21` [Compound 995] gave an IC50 of 0.5 to 2 µM. `CCn1c(-c2ccc(NS(C)(=O)=O)c(C)c2)c(C#N)c2ccc(OC)cc21` [Compound 959] was tested, and the IC50 was 0.5 to 2 µM. Work on `CCOc1ccc2c(C#N)c(-c3ccc(NC(=O)OCC(C)(C)C)cc3)n(CC3CC3)c2c1` [Compound 1152] yielded an IC50 of under 0.5 µM. Work on `CCCCOC(=O)Nc1ccc(-c2c(C#N)c3cc(OCC)ccc3n2C2CCC2)cc1` [Compound 1198] yielded an IC50 of under 0.5 µM. In the case of `CCCOC(=O)Nc1ccc(-c2c(C#N)c3ccc(OCC)cc3n2CCC)cc1` [Compound 1055], the IC50 is reported as 0.5 to 2 µM and < 0.5 µM. In the case of `CCCCn1c(-c2ccc(NC(=O)NCCC)cc2)c(C#N)c2ccc(OCC)cc21` [Compound 1066], the IC50 is reported as 0.5 to 2 µM. For `CC(C)NC(=O)Nc1ccc(-c2c(C#N)c3ccc(OCCN4CCC4)cc3n2C2CCC2)cc1` [Compound 1316], the IC50 was under 0.5 µM. `CC(C)OC(=O)Nc1ccc(-c2c(C#N)c3ccc(OCCNC4CC4)cc3n2C2CCC2)cc1` [Compound 1279] was tested, and the IC50 was under 0.5 µM. With `N#Cc1c(-c2ccc(NS(=O)(=O)C3CC3)cc2)n(C2CCC2)c2cc(OCC3CCCO3)ccc12` (centres unmarked) [Compound 1280] the IC50 was under 0.5 µM. `CCn1c(-c2ccc(NC(=O)OC(C)C)cc2)c(C#N)c2cc3c(cc21)OCO3` [Compound 1040] gave an IC50 of 0.5 to 2 µM. `CCn1c(-c2ccc(N3CCNC3=O)cc2)c(C#N)c2ccc(OCCCCl)cc21` [Compound 1051] gave an IC50 of 0.5 to 2 µM. Molecule `CCCCn1c(-c2ccc(NC(=O)NCC)cc2)c(C#N)c2ccc(OCC)cc21` [Compound 1016] has an IC50 of 0.5 to 2 µM. Molecule `COc1ccc2c(C#N)c(-c3ccc(NC(=O)OC(C)C)cc3)n(C3CCC3)c2c1` [Compound 1076] has an IC50 of under 0.5 µM. For `CCn1c(-c2ccc(NC(=O)NC)cc2)c(C#N)c2ccc(OCCCN3CCOCC3)cc21` [Compound 1118], the IC50 was 0.5 to 2 µM. `CCOc1ccc2c(C#N)c(-c3ccc(NC(=O)OCc4ccccc4)cc3)n(CC3CC3)c2c1` [Compound 1153] showed an IC50 of under 0.5 µM. `CCCNC(=O)Nc1ccc(-c2c(C#N)c3ccc(OC(F)F)cc3n2C2CCC2)cc1` [Compound 1187] gave an IC50 of 0.5 to 2 µM. In the case of `CCCS(=O)(=O)Nc1ccc(-c2c(C#N)c3ccc(OC(F)F)cc3n2C(C)C)cc1` [Compound 867], the IC50 is reported as 0.5 to 2 µM. For `CCCCNC(=O)Nc1ccc(-c2c(C#N)c3ccc(OCC)cc3n2C(C)C)cc1` [Compound 1101], the IC50 was under 0.5 µM. Work on `CCN1CCN(c2ccc(-c3c(C#N)c4ccc(OC)cc4n3CC)cc2)S1(=O)=O` [Compound 1110] yielded an IC50 of 0.5 to 2 µM. For `CCn1c(-c2ccc(N3CCNC3=O)cc2)c(C#N)c2ccc(OCCCN3CCCC3)cc21` [Compound 1085], the IC50 was under 0.5 µM. `CCn1c(-c2ccc(NC(=O)C3CC3)cc2)c(C#N)c2ccc(OCCN3CCSCC3)cc21` [Compound 1090] was tested, and the IC50 was 0.5 to 2 µM. For `CCCn1c(-c2ccc(NS(=O)(=O)CCC)cc2)c(C#N)c2cc(OC)ccc21` [Compound 1041], the IC50 was 0.5 to 2 µM and < 0.5 µM. `CCn1c(-c2ccc(NC(=O)NC(C)C)cc2)c(C#N)c2ccc(OCCF)cc21` [Compound 956] showed an IC50 of under 0.5 µM. With `CCn1c(-c2ccc(NC(=O)OC)cc2)c(C#N)c2ccc(OCCCN3CCOCC3)cc21` [Compound 1112] the IC50 was 0.5 to 2 µM.
